# From EP1808169B1, “Polyhydroxylated aromatic compounds for the treatment of amyloidosis and alpha-synuclein fibril diseases” (priority 1999, dated 2001)
# Marks after values point to notes of the source that are not given here.
# Key:
# Format in all cases: biochemical
# [1] = tested on: Aβ 1-42 amyloid fibrils; assay: Thioflavin T fluorometry: disassembly/disruption of pre-formed Aβ 1-42 amyloid fibrils; settings: for Fluorescence inhibition, %, at the Aβ 1-42:compound w/w ratios given: overnight (~18 hours) at 37°C, pH 7.0, mean of triplicate ± standard deviation
# Protocol: For the first study, 1 mg of Aβ 1-42 (Bachem Inc., Torrance, CA, USA) was dissolved in 1.0 ml of double distilled water (1 mg/ml solution). 25 µM of Aβ 1-42 was then incubated overnight (~18 hours) at 37°C, in the absence or presence of 100µg/ml of the following compounds: 1) EDTA (Sigma Chemical Company, St. Louis, MO, USA), 2) myricetin (Acros, Somerville, New Jersey, USA), 3) exifone (Acros) 4) pyrogallol (Sigma), 5) tannic acid (Acros), 6) pyrocatechol (Acros), 7) quercetin (Sigma), 8) ellagic acid (Acros), 9) 1,2,4-benzenetriol (Acros), 10) 5-hydroxydopamine (Acros), 11) gallamide hydrate (Acros), 12) gallic acid (Sigma), 13) ethyl gallate (Acros), 14) quinic acid (Acros), 15) propyl gallate (Sigma), and 16) phloroglucide (Acros), each in the presence of 150 mM Tris HCl, 10 mM NaCl (pH 7.0) with 0.02% sodium azide. In this study, the Aβ 1-42:compound weight ratio was 1:1.
# For the second study, 1 mg of Aβ 1-42 (Bachem) was dissolved in 1.0 ml of double distilled water (1 mg/ml solution). 25 µM of Aβ 1-42 was then incubated overnight (~18 hours) at 37°C, in the absence or presence of 50µg/ml of the following compounds: 1) gallic acid, 2) ethyl gallate, 3) quinic acid, 4) gallamide trihydrate, 5) ellagic acid, 6) propyl gallate, and 7) pyrogallol, each in the presence of 150 mM Tris HCl, 10 mM NaCl (pH 7.0) with 0.02% sodium azide. In this study, the Aβ 1-42:compound weight ratio was 2:1.
# Thioflavin T is known to bind to fibrillar amyloid proteins, and an increase in fluorescence correlates with an increase in amyloid fibril formation, whereas a decrease in fluorescence correlates with a decrease in amyloid fibrils due to disassembly and/or disruption. The Alzheimer's Aβ protein (1-42) when placed in solution, such as distilled water, tends to spontaneously form amyloid fibrils. Using this sensitive assay, any decreases or increases in fluorescence was previously shown to correlate with a decrease or increase in the amount of amyloid fibrils (see the documents cited above), allowing one to identify and quantitate the extent of potential inhibitors and/or enhancers of Alzheimer's Aβ 1-42 amyloid fibrils.
# To assess the effects of each compound on potential disassembly/ disruption of preformed Aβ 1-42 fibrils, 50 µl of Aβ 1-42 with or without test compounds (described above) were added to 1.2 ml of 100µM Thioflavin T (Sigma) in 50mM NaH2PO4 (pH 6.0) for fluorometry readings. […] Fluorescence emission at 482 nm was measured on a Turner instrument-model 450 fluorometer at an excitation wavelength of 450 nm. For each determination, the fluorometer was calibrated by zeroing in the presence of the Thioflavin T reagent alone, and by setting the 50 ng/ml riboflavin (Sigma Chemical Co., St. Louis, MO) in the Thioflavin T reagent to 1800 fluorescence units. All fluorescence determinations were based on these references and any fluorescence given off by any of the compounds in the presence of the Thioflavin T reagent was always subtracted from all pertinent readings.
# For all fibrillogenesis studies utilizing Thioflavin T fluorometry, as disclosed herein, comparisons of amyloid protein in the presence or absence of test compounds were based on paired Student's t tests with data shown as the mean of triplicate measurements ± standard deviation.
# [2] = tested on: Aβ 1-40 amyloid fibrils; assay: Modified Congo red-Aβ spectrophotometric assay: disaggregation of pre-formed Aβ 1-40 fibrils (3 days incubation); settings: Aβ:compound weight ratio 2:1; fibrillized Aβ 1-40 incubated with compound 3 days at 37°C in TBS pH 7.0; Δ absorbance at 540 nm; triplicate
# Protocol: In this study, a Congo red-Aβ spectrophotometric assay (Klunk et al., Anal. Biochem. 266:66-76, 1999) was modified to determine the effectiveness of polyhydroxylated aromatic compounds on the disaggregation of pre-formed Aβ 1-40 amyloid fibrils. For this assay, 1 mg of Aβ 1-40 (Bachem) was incubated for 4 days in distilled water at 37°C to spontaneously produce amyloid fibrils. 25pM of fibrillized Aβ 1-40 was then incubated in triplicate with various test compounds for 3 days at 37°C in Tris-buffered saline (TBS)(100 mM Tris; 50 mM NaCl; pH 7.0, with 0.02% sodium azide), at an Aβ:compound weight ratio of 2:1. Following incubation, 50µl of 360 µM Congo red (Sigma) in distilled water was then added to 250 µl of each incubation mixture, giving a final Aβ:Congo red molar ratio of 1:3. After 10 minutes, the absorbance at 405 nm (reference wavelength to account for the absorbance of Congo red alone at 540 nm) and 540 nm (sample absorbance where "sample" refers to Aβ alone, test compound alone, or Aβ plus test compound, all in the presence of Congo red) was determined using a Biorad Model 550 BLISA Plate Reader (Biorad, Hercules, CA, USA). The absorbance at wavelength 405 nm was automatically subtracted by the ELISA plate reader from the absorbance at wavelength 540 nm (difference is referred to as Δ absorbance)(see Klunk et al. cited above). Therefore, the Δ absorbance reading at 540 nm was proportional to the amount of aggregated Aβ left in solution (Klunk et al.).
# For all experiments involving test compounds, the Δ absorbance reading at 540 nm of the test compound alone (in the absence of Aβ), was always subtracted from the corresponding Δ absorbance reading at 540 nm of the test compound in the presence of Aβ. Using this modification of the method of Klunk et al., the use of a greater final concentration of Congo red, i.e. 60µM instead of 14µM, in the presence of fibrillar Aβ gave an overall absorbance at 540 nm that was always below 1.0 Absorbance Unit (AU), and well within the linear absorbance range.
# The following polyhydroxylated aromatic containing compounds were tested using the above described Congo red-Aβ spectrophotometric assay to determine their effectiveness on disaggregation of pre-formed Aβ 1-40 amyloid fibrils: 1) gallic acid, 2) ethyl gallate, 3) quinic acid, 4) gallamide trihydrate, 5) ellagic acid, 6) propyl gallate, and 7) pyrogallol.
# [3] = biological target: T1, human amylin (Homo sapiens, UniProt P10997); assay: Thioflavin T fluorometry: disassembly/disruption of islet amyloid (amylin) fibrils; settings: 25 µM human amylin, 100µg/ml compound, amylin:compound weight ratio 1:1, overnight (~18 hours) at 37°C, pH 7.0; read-out: Fluorescence inhibition, %
# T1 construct: This amyloid protein involved consists of a 37 amino acid protein known as islet amyloid polypeptide or amylin; purchased Bachem
# T1 sequence (P10997 34-70 limits assumed): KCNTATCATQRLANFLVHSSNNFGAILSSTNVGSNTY
# [4] = biological target: T1, human amylin; assay: Congo red staining of amylin fibrils on gelatin-coated slides (polarized light); settings: result in words; amylin + compound after overnight incubation, compared with amylin alone
# Protocol: Following Thioflavin T fluorometry readings as described in Example 1, 5µl aliquots of amylin only, amylin + myricetin, amylin + exifone, and amylin + tannic acid were also taken, allowed to air dry overnight on gelatin-coated slides, and stained with Congo red as previously described (Castillo et al., Diabetes 47:612-620, 1998).
# [5] = Aβ 1-42:compound w/w ratio 2:1, 25 µM Aβ 1-42, 50µg/ml compound
# [6] = Aβ 1-42:compound w/w ratio 1:1, 25 µM Aβ 1-42, 100µg/ml compound
compound,measurement,setting,value
"CCOC(=O)c1cc(O)c(O)c(O)c1 [Ethyl gallate, ethyl gallate]","Fluorescence inhibition, %, at the Aβ 1-42:compound w/w ratios given",[1]; [5],30 ± 3.7%
same,"Decrease in absorbance, %",[2],28 ± 5.0%
"O=c1oc2c(O)c(O)cc3c(=O)oc4c(O)c(O)cc1c4c23 [Ellagic acid, ellagic acid]","Fluorescence inhibition, %, at the Aβ 1-42:compound w/w ratios given",[1]; [5],62 ± 3.9%
same,"Decrease in absorbance, %",[2],54 ± 2.8%
"O=c1c(O)c(-c2cc(O)c(O)c(O)c2)oc2cc(O)cc(O)c12 [Myricetin, myricetin]",inhibition at 100 µg/mL,[3],97.4 ± 0.3%
same,Congo red staining,[4],marked decrease in Congo red staining
"Oc1cccc(O)c1O [Pyrogallol, pyrogallol]","Fluorescence inhibition, %, at the Aβ 1-42:compound w/w ratios given",[1]; [5],72 ± 3.8%
same,"Decrease in absorbance, %",[2],63 ± 3.4%
"CCCOC(=O)c1cc(O)c(O)c(O)c1 [Propyl gallate, propyl gallate]","Fluorescence inhibition, %, at the Aβ 1-42:compound w/w ratios given",[1]; [5],38 ± 4.8%
same,"Decrease in absorbance, %",[2],17 ± 7.3 %
"Oc1cc(O)cc(-c2c(O)cc(O)cc2O)c1 [Phloroglucide, phloroglucide]","Fluorescence inhibition, %, at the Aβ 1-42:compound w/w ratios given",[1]; [6],30 ± 0.6%
"O=C(c1cc(O)c(O)c(O)c1)c1ccc(O)c(O)c1O [Exifone, exifone]",inhibition at 100 µg/mL,[3],99.1 ± 0.5%
same,"Fluorescence inhibition, %, at the Aβ 1-42:compound w/w ratios given",[1]; [6],93 ± 1.4%
same,Congo red staining,[4],marked decrease in Congo red staining
"O=C(O)[C@]1(O)C[C@@H](O)[C@@H](O)[C@H](O)C1 [Quinic acid, quinic acid]","Fluorescence inhibition, %, at the Aβ 1-42:compound w/w ratios given",[1]; [5],0.5 ± 3.9 %
same,"Decrease in absorbance, %",[2],0 + 5.0** %
"NC(=O)c1cc(O)c(O)c(O)c1.O.O.O [Gallamide trihydrate, gallamide trihydrate]","Fluorescence inhibition, %, at the Aβ 1-42:compound w/w ratios given",[1]; [5],60 ± 2.2%
same,"Decrease in absorbance, %",[2],31 ± 1.9%
"O=C(O)CN(CCN(CC(=O)O)CC(=O)O)CC(=O)O [EDTA, reference compound]",disassembly/disruption of Aβ 1-42 amyloid fibrils,"[1]; result in words, 100µg/ml compound, 25 µM Aβ 1-42, weight ratio 1:1, overnight at 37°C",no significant disassembly/disruption
